Results as given in US20230332232A1, “COMPOSITIONS AND METHODS FOR DIAGNOSING AND TREATING A DYSTONIA” (Duke University, priority 2020, published 2023).

Tested on: DYT1 knockin (Tor1a^delGAG/+) murine embryonic fibroblasts (MEFs)
Assay: Untargeted LC/MS/MS proteomics of EVs from DYT1 MEFs exposed 24 hours to drug, compared with untreated DYT1 (Het) MEFs
Type: cell-based, mouse
Experimental: Methods for isolation and purification of exosomes and extracellular vesicles (EV) were extensively reviewed. Experiments were performed to arrive at a robust and reproducible protocol. The protocol used herein is that set forth in Théry et al, 2006, which is incorporated by reference for it teaching of this protocol. This protocol involves depleting serum-derived EVs from cell culture media by overnight ultracentrifugation and exchanging media for 1% FBS EV-depleted media. Media is then collected from cells following a 24-hour conditioning period and EVs are isolated by 18-hour ultracentrifugation at 100,000 g (FIG. 1A).
EVs were isolated from media of cultured murine embryonic fibroblasts (MEFs) prepared in-house according to protocols described by Xu 2005 from DYT1 knockin mice (Tor1a^delGAG/+) (Goodchild R E, et al. (2005) Neuron. 48:923-932) and littermate wild-type (WT) controls. The cultured MEFs from the DYT1 mice were exposed for 24 hours to Ritonavir (RTV) while the MEFs from WT mice were exposed to vehicle, ISRIB, or Salubrinal (SAL). The EVs isolated from these WT cells and DYT1 were characterized by untargeted proteomics and RNA-seq to identify differentially expressed proteins and RNAs as candidate biomarkers. Experimenter and Proteomics core staff were blinded to genotype of cell cultures throughout preparation and analysis phases.
Samples were first normalized to 20 μg and spiked with undigested casein at a total of 40 fmol/μg, 80 fmol/μg, or 160 fmol/μg, then reduced with 10 mM dithiolthreitol for 30 minute at 80° C. and alkylated with 20 mM iodoacetamide for 30 minutes at room temperature. Next, the samples were supplemented with a final concentration of 1.2% phosphoric acid and 741 μL of S-Trap (Protifi) binding buffer (90% MeOH/100 mM […]). Proteins were trapped on the S-Trap, digested using 20 ng/μL sequencing grade trypsin (Promega) for 1 hour at 47° C., and eluted using 50 mM TEAB, followed by 0.2% FA, and lastly using 50% CAN/0.2% FA. All samples were then lyophilized to dryness and resuspended in 40 μL 1% TFA/2% acetonitrile containing 12.5 fmol/μL yeast alcohol dehydrogenase (ADH_YEAST). A QC Pool was created from 3 uL of each sample. All QC Pools were run periodically throughout the acquisition period.
Quantitative LC/MS/MS was performed on 2 μL of each sample, using a nanoAcquity UPLC system (Waters Corp) coupled to a Thermo Orbitrap Fusion Lumos high resolution accurate mass tandem mass spectrometer (Thermo) via a nanoelectrospray ionization source. Briefly, the sample was first trapped on a Symmetry C18 20 mm×180 μm trapping column (5 μL/min at 99.9/0.1 v/v water/acetonitrile), after which the analytical separation was performed using a 1.8 μm Acquity HSS T3 C18 75 μm×250 mm column (Waters Corp.) with a 90 minute linear gradient of 5% to 30% acetonitrile with 0.1% formic acid at a flow rate of 400 nanoliters/minute (nL/min) with a column temperature of 55° C. Data collection on the Fusion Lumos mass spectrometer was performed in a data-dependent acquisition (DDA) mode of acquisition with a r=120,000 (@ m/z 200) full MS scan from m/z 375-1500 with a target AGC value of 2e5 ions. MS/MS scans were acquired at Rapid scan rate (Ion Trap) with an AGC target of 5e3 ions and a max injection time of 100 ms. The total cycle time for MS and MS/MS scans was 2 seconds. A 20 second dynamic exclusion was employed to increase depth of coverage. The total analysis cycle time for each sample injection was approximately 2 hours.

CC(C)c1nc(CN(C)C(=O)N[C@H](C(=O)N[C@@H](Cc2ccccc2)C[C@H](O)[C@H](Cc2ccccc2)NC(=O)OCc2cncs2)C(C)C)cs1 [RTV, Ritonavir]
12.21: Abs Z Score Sum (Geno + RTV) (EV protein Ssbp1 (Q9CYR0))
9.50: Abs Z Score Sum (Geno + RTV) (EV protein Tars (Q9D0R2))
6.63: Abs Z Score Sum (Geno + RTV) (EV protein Tra2b (P62996))
5.45: Abs Z Score Sum (Geno + RTV) (EV protein Ssb (P32067))
9.02: Abs Z Score Sum (Geno + RTV) (EV protein Upf1 (Q9..))
8.93: Abs Z Score Sum (Geno + RTV) (EV protein Vapa (Q9WV55))
yes: RTV Direction Opposite dE? (EV protein Ssb (P32067)) | RTV Direction Opposite dE? (EV protein Ssbp1 (Q9CYR0)) | RTV Direction Opposite dE? (EV protein Svep1 (A2A0A0)) | RTV Direction Opposite dE? (EV protein Tra2b (P62996)) | RTV Direction Opposite dE? (EV protein Vapa (Q9WV55)) | Direction Opposite dE? (EV protein: 26S proteasome non-ATPase regulatory subunit 8) | Direction Opposite dE? (EV protein: 60S [?] subunit biogenesis protein [?] homolog) | Direction Opposite dE? (EV protein: 60S ribosomal protein [?]) | Direction Opposite dE? (EV protein: 116 kDa [?] small nuclear ribonucleoprotein component) | Direction Opposite dE? (EV protein: AP-3 complex subunit [?]) | Direction Opposite dE? (EV protein: ATP-dependent RNA helicase [?]) | Direction Opposite dE? (EV protein: Acyl-protein thioesterase 2) | Direction Opposite dE? (EV protein: Alpha-crystallin B chain) | Direction Opposite dE? (EV protein: Anaphase-promoting complex subunit 2) | Direction Opposite dE? (EV protein: Anaphase-promoting complex subunit 4) | Direction Opposite dE? (EV protein: Anaphase-promoting complex subunit 5) | Direction Opposite dE? (EV protein: Calponin-3) | Direction Opposite dE? (EV protein: Cell [?] cycle protein [?] homolog) | Direction Opposite dE? (EV protein: Cell division cycle protein 27 homolog) | Direction Opposite dE? (EV protein: Choline transporter-like protein 1) | Direction Opposite dE? (EV protein: Coiled-coil domain-containing protein 22) | Direction Opposite dE? (EV protein: Complement C1q [?] -related protein 3) | Direction Opposite dE? (EV protein: Cullin-2) | Direction Opposite dE? (EV protein: Cullin-5) | Direction Opposite dE? (EV protein: Cullin-7) | Direction Opposite dE? (EV protein: Cytosolic purine [?] -nucleotidase) | Direction Opposite dE? (EV protein: DNA [?] (r264)) | Direction Opposite dE? (EV protein: DNA [?] licensing factor MCM4) | Direction Opposite dE? (EV protein: DNA ligase 1) | Direction Opposite dE? (EV protein: DNA replication licensing factor MCM5) | Direction Opposite dE? (EV protein: DNA replication licensing factor [?]) | Direction Opposite dE? (EV protein: DNA-directed RNA polymerase II subunit RPB1) | Direction Opposite dE? (EV protein: DNA-directed RNA polymerase II subunit RPB2) | Direction Opposite dE? (EV protein: DNA-directed RNA polymerase II subunit RPB3) | Direction Opposite dE? (EV protein: DNA-directed RNA polymerase [?] subunit RPA2) | Direction Opposite dE? (EV protein: DNA-directed RNA polymerases I, II, and III subunit RPABC3) | Direction Opposite dE? (EV protein: DNA-directed RNA polymerases I, II, and III subunit [?]) | Direction Opposite dE? (EV protein: Developmentally-regulated GTP-binding protein 2) | Direction Opposite dE? (EV protein: Double-strand-break repair protein rad21 homolog) | Direction Opposite dE? (EV protein: Dual specificity mitogen-activated protein kinase kinase 4) | Direction Opposite dE? (EV protein: Dynactin subunit 4) | Direction Opposite dE? (EV protein: E3 ubiquitin-protein ligase [?]) | Direction Opposite dE? (EV protein: Elongin-B) | Direction Opposite dE? (EV protein: Extended synaptotagmin-1) | Direction Opposite dE? (EV protein: Gamma-tubulin complex component 2) | Direction Opposite dE? (EV protein: General vesicular transport factor p115) | Direction Opposite dE? (EV protein: Glucose-6-phosphate 1-dehydrogenase [?]) | Direction Opposite dE? (EV protein: Glutathione S-transferase omega-1) | Direction Opposite dE? (EV protein: Glycosylated lysosomal membrane protein) | Direction Opposite dE? (EV protein: Golgi reassembly-stacking protein 2) | Direction Opposite dE? (EV protein: Heterogeneous nuclear ribonucleoprotein H) | Direction Opposite dE? (EV protein: Histone-arginine methyltransterase CARM1) | Direction Opposite dE? (EV protein: Immunity-related GTPase family M protein 1) | Direction Opposite dE? (EV protein: Importin-7) | Direction Opposite dE? (EV protein: Inositol monophosphate 1) | Direction Opposite dE? (EV protein: Insulin-like growth factor 1 receptor) | Direction Opposite dE? (EV protein: Integrin beta- 3) | Direction Opposite dE? (EV protein: Lupus [?] protein homolog) | Direction Opposite dE? (EV protein: Lysine-specific histone demethylase [?]) | Direction Opposite dE? (EV protein: Mediator [?] RNA polymerase II transcription subunit 23) | Direction Opposite dE? (EV protein: Metastasis-associated protein [?] (r222)) | Direction Opposite dE? (EV protein: Metastasis-associated protein [?] (r261)) | Direction Opposite dE? (EV protein: Microtubule-associated protein [?]) | Direction Opposite dE? (EV protein: N-alpha-acetyltransferase 10) | Direction Opposite dE? (EV protein: Nerine arginine-rich splicing factor [?]) | Direction Opposite dE? (EV protein: Nuclear [?] complex protein [?]) | Direction Opposite dE? (EV protein: Nuclear cap-binding protein subunit 1) | Direction Opposite dE? (EV protein: Nuclear receptor-binding protein) | Direction Opposite dE? (EV protein: NudC domain-containing protein 1) | Direction Opposite dE? (EV protein: Phospholipase D3) | Direction Opposite dE? (EV protein: Phosphoribosyl pyrophosphate synthase-associated protein 1) | Direction Opposite dE? (EV protein: Probable ubiquitin carboxyl-terminal hydrolase [?]) | Direction Opposite dE? (EV protein: Proenkephalin-A) | Direction Opposite dE? (EV protein: Protein O-GlcNAcase) | Direction Opposite dE? (EV protein: Protein RMD5 homolog A) | Direction Opposite dE? (EV protein: Protein [?] 14 homolog) | Direction Opposite dE? (EV protein: Protein [?] (r160)) | Direction Opposite dE? (EV protein: Protein disulfide-isomerase A4) | Direction Opposite dE? (EV protein: RNA-binding protein [?]) | Direction Opposite dE? (EV protein: Ran-binding protein 10) | Direction Opposite dE? (EV protein: Ras-related protein Rab-6A) | Direction Opposite dE? (EV protein: Ribosome biogenesis protein BOP1) | Direction Opposite dE? (EV protein: Ribosome production factor 2 homolog) | Direction Opposite dE? (EV protein: Serine threonine-protein phosphatase 2A 56 kDa regulatory subunit gamma isoform) | Direction Opposite dE? (EV protein: Sorting nexin-1) | Direction Opposite dE? (EV protein: Splicing factor 3B subunit 4) | Direction Opposite dE? (EV protein: Structural maintenance of [?] protein 2) | Direction Opposite dE? (EV protein: Transformer-2 protein homolog beta) | Direction Opposite dE? (EV protein: Trascriptional activator protein [?] -alpha) | Direction Opposite dE? (EV protein: Ubiquitin-conjugating enzyme [?]) | Direction Opposite dE? (EV protein: WD repeat-containing protein [?]) | Direction Opposite dE? (EV protein: [?] (r162)) | Direction Opposite dE? (EV protein: [?] -1 (r154)) | Direction Opposite dE? (EV protein: [?] -1 (r232)) | Direction Opposite dE? (EV protein: [?] -associated membrane protein-associated protein A) | Direction Opposite dE? (EV protein: [?] -promoting complex subunit 1) | Direction Opposite dE? (EV protein: [?] -related [?] -associated actin-dependent regulator [?] chromatin subfamily A member 5) | Direction Opposite dE? (EV protein: [?] complex subunit 2) | Direction Opposite dE? (EV protein: [?] kinase) | Direction Opposite dE? (EV protein: [?] membrane protein 2) | Direction Opposite dE? (EV protein: [?] myosin- [?]) | Direction Opposite dE? (EV protein: [?] repeat-containing protein 5A) | Direction Opposite dE? (EV protein: [?] ubiquitin-protein ligase [?]) | Direction Opposite dE? (EV protein: [?] von Willebrand factor type A, [?] and pentraxin domain-containing protein 1) | Direction Opposite dE? (EV protein: p21-activated protein kinase-interacting protein 1)
6.23: Abs Z Score Sum (Geno + RTV) (EV protein Spthn1 Q62261)
8.62: Abs Z Score Sum (Geno + RTV) (EV protein Ube2n P61089)
12.14: Abs Z Score Sum (Geno + RTV) (EV protein Usol Q9Z1Z0)
5.72: Abs Z Score Sum (Geno + RTV) (EV protein Srsf7 Q8BL97)
6.02: Abs Z Score Sum (Geno + RTV) (EV protein Sptan1 (P16546))
